These results are taken from ChEMBL document CHEMBL1136000, “Synthesis of a small library of 3-(carboranylalkyl)thymidines and their biological evaluation as substrates for human thymidine kinases 1 and 2” (J Med Chem, 2002).

Assay [1] addresses T1, Thymidine kinase, cytosolic (Homo sapiens) (UniProt P04183).
T1 sequence (whole entry): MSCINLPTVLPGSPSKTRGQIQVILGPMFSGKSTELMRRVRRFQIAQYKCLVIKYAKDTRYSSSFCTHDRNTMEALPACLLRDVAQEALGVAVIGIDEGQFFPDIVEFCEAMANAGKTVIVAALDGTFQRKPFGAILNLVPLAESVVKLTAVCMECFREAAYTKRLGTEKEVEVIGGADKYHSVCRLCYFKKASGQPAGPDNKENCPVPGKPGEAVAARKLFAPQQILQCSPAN
Description: Rate of phosphorylation in the presence of 1% DMSO using Phosphoryl transfer assay in recombinant human cytosolic thymidine kinase 1 at 5 uM

The target in assay [2] is T1, Thymidine kinase, cytosolic (Homo sapiens). This is another data set of the same source.
Description: Rate of phosphorylation in the presence of 1% DMSO using Phosphoryl transfer assay in recombinant human cytosolic thymidine kinase 1 at 10 uM
In assay [3] the target is Thymidine kinase 2, mitochondrial (Homo sapiens) (UniProt O00142).
Thymidine kinase 2, mitochondrial (Homo sapiens), sequence (O00142 whole entry, looked up): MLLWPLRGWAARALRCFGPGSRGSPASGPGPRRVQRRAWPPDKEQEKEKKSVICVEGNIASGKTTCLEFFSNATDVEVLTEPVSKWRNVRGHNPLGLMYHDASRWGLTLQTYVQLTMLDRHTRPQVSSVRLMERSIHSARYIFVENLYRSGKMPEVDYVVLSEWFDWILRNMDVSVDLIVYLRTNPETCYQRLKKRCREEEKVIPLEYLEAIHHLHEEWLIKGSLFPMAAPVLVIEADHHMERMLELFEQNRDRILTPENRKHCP

As to `Cc1cn([C@H]2C[C@H](O)[C@@H](CO)O2)c(=O)n(CCCCC2CC2)c1=O`, the Rate of phosphorylation in assay [1] was 0.17; in assay [2], 0.13; in assay [3] it was 0.003.
In the case of `Cc1cn([C@H]2C[C@H](O)[C@@H](CO)O2)c(=O)n(CCC2CC2CC(O)CO)c1=O` (some centres undefined), the Rate of phosphorylation was determined as 0.49 in assay [1], 0.45 in assay [2] and 0.002 in assay [3].
In the same order, the values of `Cc1cn([C@H]2C[C@H](O)[C@@H](CO)O2)c(=O)n(CCCCCCCC2CC2CC(O)CO)c1=O` (some centres undefined) are 0.13, 0.13 and under 0.001.
In the same order, the values of `Cc1cn([C@H]2C[C@H](O)[C@@H](CO)O2)c(=O)n(CCCCCC2CC2CC(O)CO)c1=O` (some centres undefined) are 0.39, 0.41 and 0.002.
On to `Cc1cn([C@H]2C[C@H](O)[C@@H](CO)O2)c(=O)n(CCCCCCC2CC2)c1=O`, for which the figures for the Rate of phosphorylation in assay [1], in assay [2] and in assay [3] were 0.31, 0.28 and under 0.001, respectively.
In the same order, the values of `Cc1cn([C@H]2C[C@H](O)[C@@H](CO)O2)c(=O)n(CCCCCCCC2CC2)c1=O` are 0.15, 0.11 and under 0.001.
For `Cc1cn([C@H]2C[C@H](O)[C@@H](CO)O2)c(=O)n(CCC2CC2)c1=O` the same measures were 0.42, 0.39 and 0.002.
Take `Cc1cn([C@H]2C[C@H](O)[C@@H](CO)O2)c(=O)n(CCCCCCC2CC2CC(O)CO)c1=O` (some centres undefined): the Rate of phosphorylation in assay [1] was 0.22; in assay [2] it was 0.32; in assay [3], 0.002.
In the same order, the values of `Cc1cn([C@H]2C[C@H](O)[C@@H](CO)O2)c(=O)[nH]c1=O` are 1, 1 and 1.
In the same order, the values of `Cc1cn([C@H]2C[C@H](O)[C@@H](CO)O2)c(=O)n(CCCCC2CC2CC(O)CO)c1=O` (some centres undefined) are 0.21, 0.21 and 0.003.
For `Cc1cn([C@H]2C[C@H](O)[C@@H](CO)O2)c(=O)n(CCCC2CC2)c1=O` the same measures were 0.27, 0.3 and 0.002.
With `Cc1cn([C@H]2C[C@H](O)[C@@H](CO)O2)c(=O)n(CCCCCC2CC2)c1=O`, the Rate of phosphorylation in assay [1] amounted to 0.57; in assay [2] it was 0.41; in assay [3], 0.001.
In the same order, the values of `Cc1cn([C@H]2C[C@H](O)[C@@H](CO)O2)c(=O)n(CCCC2CC2CC(O)CO)c1=O` (some centres undefined) are 0.43, 0.4 and 0.004.
